In paper PMC4286029 (Inflammation Research, 2014):
Counter-ions that a name gives are not always drawn. Values belong to the compound of their own block, whether it stands above or below them.

What was measured:
[1] = test system: rat collagen-induced arthritis model; test: Collagen-induced arthritis in rats; format: in vivo, Lewis rats; conditions: MTX 0.3 mg/kg; for effect on paw swelling / arthritis symptoms, therapeutic administration: oral once daily from day 15, JTE-052 0.1, 1, 10 mg/kg
Description: CIA was induced in rats as previously described with some modifications. Briefly, type II collagen (Collagen Research Center, Saitama, Japan) was dissolved in 0.01 M acetic acid at 2 mg/mL, and the solution was emulsified in an equal volume of Freund’s incomplete adjuvant (Difco Laboratories, Detroit, MI). Lewis rats were immunized with 1 mL of the emulsion (1 mg of type II collagen) via ten intradermal injections on the back under anesthesia. The rats were then challenged with 0.2 mL of the emulsion injected into the base of the tail on day 8 under anesthesia. The test drugs were given orally once daily from day 1 to day 21 (preventive administration) or from day 15 to day 28 (therapeutic administration). After arthritis induction, the hind paw volume was measured by a water displacement method using a plethysmometer (Muromachi Kikai Co. Ltd., Tokyo, Japan). On day 22 or day 29, the rats were euthanized, and their hind paws were excised and X-rayed or processed for histological evaluation. Radiographs of the right hindlimbs were taken using a microfocal cone-beam X-ray CT scanner (MCT-CB100MF; Hitachi Medical Corporation, Tokyo, Japan). The severity of bone destruction was scored on a 3-point scale ranging from 0 to 2 for the following five joints: second metatarsal—second intertarsal joint, third metatarsal—third intertarsal joint, talus—central intertarsal joint, calcaneus—fourth intertarsal joint, and astragalo—tibial joint. For histological analysis, the formalin-fixed left hindlimbs were sectioned and stained with hematoxylin and eosin. The histology of the tarsal joints was evaluated by assessing the following parameters defined in the preliminary examination: inflammatory cell infiltration, synovial cell hyperplasia, cartilage destruction, and bone destruction. The severity of each histological change was scored on a 5-point scale ranging from 0 to 4. (Score 0: normal; Score 1: minimal, solitary (and very small) lesion; Score 2: slight, focal (and small) lesion; Score 3: moderate, scattered lesion; and Score 4: severe, extensive lesion).
(§1) . The hind paw volume (a) and body weight (b) were measured periodically. Images of hematoxylin and eosin staining (c) and radiographs of hindlimbs (e) are shown. Histological change (d) and radiographical change (f) were scored. The results are expressed as mean ± SD. ^# p < 0.05, ^## p < 0.01, versus vehicle by the Steel test
as §1, with “SD. *p < 0.05, **p < 0.01, versus vehicle by Dunnett’s test.” for “SD.”

[2] = test system: IFN-α signaling (JAK1/Tyk2), Stat1 phosphorylation in hPBMCs; test: cells; conditions: Homo sapiens, 0.25 h, read-out: IC50, IFN-α cytokine signaling (JAK1/Tyk2)
Description: (§2) hPBMCs (3 × 10^6 cells/tube) were incubated with a test compound for 30 min at 37 °C, and then treated with IL-2 (100 ng/mL), IL-6 (100 ng/mL), IL-23 (100 ng/mL), IFN-α (100 ng/mL), or GM-CSF (1 ng/mL) for an additional 15 min. To terminate the stimulation, the cells were fixed with Fixation Buffer (BD Biosciences) for 10 min at 37 °C. The fixed cells were incubated with Perm Buffer II (BD Biosciences) for 30 min on ice and then incubated with fluorochrome-labeled anti-CD3, anti-CD4, or anti-phospho-Stat antibodies for 30 min at room temperature. The cytokine-induced Stat phosphorylation was analyzed and quantified using a Cytomics FC500 (Beckman Coulter Inc., Brea, CA). In the case of IL-23 stimulation, hPBMCs were precultured with 10 μg/mL phytohemagglutinin (PHA)-M (Sigma-Aldrich Co.) for 3 days to enhance their response to IL-23.
(§3) The phosphorylation levels of Stat5 (IL-2 and GM-CSF), Stat3 (IL-6 and IL-23), or Stat1 (IFN-α) in CD3^+CD4^+ cells (IL-2, IL-23, and IFN-α) or CD3^-CD4^+ cells (IL-6 and GM-CSF) were analyzed by flow cytometry. Data are presented as percentages of mean fluorescence intensity relative to vehicle (100 %) and non-stimulated control cells (0 %). Values are mean ± SEM. Three independent experiments were performed

[3] = test system: IL-2 signaling (JAK1/JAK3), Stat5 phosphorylation in hPBMCs; test: cells; conditions: Homo sapiens, 0.25 h, read-out: IC50, IL-2 cytokine signaling (JAK1/JAK3)
Description: as §2, §3

[4] = test system: kinases in KinaseProfiler; test: KinaseProfiler panel as a whole (selectivity for other kinases); format: biochemical; conditions: concentration of 1,000 nM
Description: […]; The selectivity of JTE-052 for other kinases was assessed using KinaseProfiler™ (Millipore Co. Ltd.). […].

[5] = test system: IL-2-induced IFN-γ production; test: IL-2-induced IFN-γ production in mice; format: in vivo, DBA/1J mice; conditions: Mus musculus, po
Description: DBA/1J mice were dosed once via oral gavage with compounds. At 1 or 6 h after compound administration, the mice were injected intraperitoneally with 2 μg of recombinant mouse IL-2 and 10 μg of biotinylated anti-mouse IFN-γ capture antibody. After 6 h, the mice were euthanized, and blood was collected. Serum IFN-γ was quantified using a Mouse IFN-γ In Vivo Capture Assay Set (BD Biosciences).
After 1 or 6 h, they were injected with IL-2 and anti-mouse IFN-γ capture antibody. At 6 h after the injection, blood samples were collected, and the serum IFN-γ levels were measured.

[6] = test system: rat collagen-induced arthritis model; design: method as in PMID 15683847; conditions: cited from earlier work

SMILES: CN(Cc1cnc2nc(N)nc(N)c2n1)c1ccc(C(=O)N[C@@H](CCC(=O)O)C(=O)O)cc1 [MTX, Methotrexate hydrate]
- effect on hind paw swelling and joint inflammation, preventive administration ([1]; oral once daily from day 1, JTE-052 0.1, 1, 10 mg/kg): significantly inhibited these symptoms
- effect on paw swelling / arthritis symptoms, therapeutic administration [1]: did not attenuate all of these symptoms
- effect on paw swelling / arthritis symptoms, therapeutic administration ([1]; listed as methotrexate): ineffective

- IC50 [2]: 1.1 nM
- IC50 [3]: 13 nM
SMILES: N#CC[C@H](C1CCCC1)n1cc(-c2ncnc3[nH]ccc23)cn1 [Ruxolitinib, Ruxolitinib phosphate, reference compound]

SMILES: C[C@@H]1CCN(C(=O)CC#N)C[C@@H]1N(C)c1ncnc2[nH]ccc12 [Tofacitinib, tofacitinib citrate, reference compound]
- inhibition of other kinases in KinaseProfiler [4]: did not inhibit any of the kinases
- ED50 ([5]; dosed 1 h prior to IL-2 injection): 1.1 mg/kg
- ED50 ([5]; dosed 6 h prior to IL-2 injection): 13 mg/kg

SMILES: C=CC[C@@H]1/C=C(\C)C[C@H](C)C[C@H](OC)[C@H]2O[C@@](O)(C(=O)C(=O)N3CCCC[C@H]3C(=O)O[C@H](/C(C)=C/[C@@H]3CC[C@@H](O)[C@H](OC)C3)[C@H](C)[C@@H](O)CC1=O)[C@H](C)C[C@@H]2OC [tacrolimus]
- effect in rat collagen-induced arthritis model, administration after the onset of arthritis [6]: had no inhibitory effects
